Molecular target: ATX (human His-tagged) (Homo sapiens (Human), UniProt Q13822)
Assay: Human ATX enzyme inhibition assay (fluorescence quenching, MR121 substrate)
Format: biochemical
Settings: 30 nM ATX, 1 μM MR121 substrate, 30° C., pH 8.0
Method in brief: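 Tris-HCl buffer at pH 8.0 contained 140 mM NaCl, 5 mM KCl, 1 mM each CaCl2 and MgCl2, and 0.01% Triton X-100. The MR121 substrate (1 μM final) was incubated with enzyme for 15 min at 30 °C, and activity was read by fluorescence quenching.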

Row | SMILES | IC50
1 | O=C(OCc1cc(Cl)cc(Cl)c1)N1C[C@@H]2CN(C(=O)c3cc4c(cn3)[nH]c3ccccc34)C[C@@H]2C1 [Example 1.04, (3aR,6aS)-3,5-dichlorobenzyl 5-(9H-pyrido[3,4-b]indole-3-carbonyl)hexahydropyrrolo[3,4-c]pyrrole-2(1H)-carboxylate] | 127 nM
2 | O=C(OCc1ccc(OC(F)(F)F)cc1F)N1C[C@@H]2CN(C(=O)c3ccc4[nH]nnc4c3)C[C@H]2C1 [Example 4.49, (3aS,6aS)-5-(1H-benzotriazole-5-carbonyl)-hexahydro-pyrrolo[3,4-c]pyrrole-2-carboxylic acid 2-fluoro-4-trifluoromethoxy-benzyl ester] | 3 nM
3 | O=C(OCc1cc(Cl)cc(Cl)c1)N1CC[C@@H]2CN(C(=O)c3ccc4[nH]nnc4c3)C[C@H]2C1 (single isomer, unassigned) [Example 11A, trans-3,5-dichlorobenzyl 2-(1H-benzo[d][1,2,3]triazole-5-carbonyl)-hexahydro-1H-pyrrolo[3,4-c]pyridine-5(6H)-carboxylate] | 22 nM
4 | O=C(OCc1ccc(OCC(F)(F)F)c(F)c1)N1CC[C@@H]2CN(C(=O)c3ccc4[nH]nnc4c3)C[C@@H]2CC1 [Example 1.46, (3aS,8aR)-2-(1H-benzotriazole-5-carbonyl)-octahydro-pyrrolo[3,4-d]azepine-6-carboxylic acid 3-fluoro-4-(2,2,2-trifluoro-ethoxy)-benzyl ester] | 2 nM
5 | O=C(OCc1ccc(C(F)(F)F)cc1F)N1C[C@@H]2CN(C(=O)c3ccc4[nH]nnc4c3)C[C@H]2C1 [Example 4.56, (3aS,6aS)-5-(1H-benzotriazole-5-carbonyl)-hexahydro-pyrrolo[3,4-c]pyrrole-2-carboxylic acid 2-fluoro-4-trifluoromethyl-benzyl ester] | 9 nM
6 | O=C(OCc1cc(Cl)cc(OC(F)(F)F)c1)N1C[C@@H]2CN(C(=O)c3ccc4[nH]nnc4c3)C[C@@H]2C1 [Example 4.27, (3aS,6aR)-5-(1H-benzotriazole-5-carbonyl)-hexahydro-pyrrolo[3,4-c]pyrrole-2-carboxylic acid 3-chloro-5-trifluoromethoxy-benzyl ester] | 4 nM
7 | O=C(OCc1cc(Cl)cc(Cl)c1)N1C[C@H]2C[C@H](Oc3ccc4[nH]c(=O)oc4c3)C[C@H]2C1 [Example 3, (3aR,5s,6aS)-3,5-Dichlorobenzyl 5-(2-oxo-2,3-dihydrobenzo[d]oxazol-6-yloxy)hexahydrocyclopenta[c]pyrrole-2(1H)-carboxylate] | 36 nM
8 | O=C(OCc1ccc(OC(F)F)cc1)N1C[C@@H]2CN(C(=O)c3ccc4[nH]nnc4c3)C[C@H]2C1 [Example 4.41, (3aS,6aS)-5-(1H-benzotriazole-5-carbonyl)-hexahydro-pyrrolo[3,4-c]pyrrole-2-carboxylic acid 4-difluoromethoxy-benzyl ester] | 9 nM
9 | O=C(CCc1ccc(OC(F)(F)F)c(F)c1)N1CC[C@@H]2CN(C(=O)c3ccc4[nH]nnc4c3)C[C@@H]2CC1 [Example 17, 1-((3aR,8aS)-2-(1H-Benzo[d][1,2,3]triazole-5-carbonyl)octahydropyrrolo[3,4-d]azepin-6(7H)-yl)-3-(3-fluoro-4-(trifluoromethoxy)phenyl)propan-1-one] | 4 nM
10 | O=C(OCc1cc(Cl)cc(Cl)c1)N1C[C@@H]2CN(C(=O)c3ccc4[nH]c5ccccc5c4c3)C[C@@H]2C1 [Example 1.06, (3aR,6aS)-3,5-dichlorobenzyl 5-(9H-carbazole-3-carbonyl)hexahydropyrrolo[3,4-c]pyrrole-2(1H)-carboxylate] | 255 nM
11 | O=C(OCc1ccc(OC(F)(F)F)cc1)N1C[C@@H]2CN(C(=O)c3ccc4[nH]c(=O)oc4c3)C[C@H]2C1 [Example 2.04, (3aS,6aS)-5-(2-oxo-2,3-dihydro-benzooxazole-6-carbonyl)-hexahydro-pyrrolo[3,4-c]pyrrole-2-carboxylic acid 4-trifluoromethoxy-benzyl ester] | 8 nM
12 | O=C(OCc1cc(Cl)cc(Cl)c1)N1C[C@H]2C[C@@H](Oc3ccc4[nH]c(=O)oc4c3)C[C@H]2C1 [Example 3.01, (3aR,5r,6aS)-3,5-Dichlorobenzyl 5-(2-oxo-2,3-dihydrobenzo[d]oxazol-6-yloxy)hexahydrocyclopenta[c]pyrrole-2(1H)-carboxylate] | 1090 nM
13 | O=C(OCc1cc(Cl)cc(Cl)c1)N1C[C@@H]2CN(C(=O)c3ccc4[nH]ccc4c3)C[C@@H]2C1 [Example 1.05, (3aR,6aS)-3,5-dichlorobenzyl 5-(1H-indole-5-carbonyl)hexahydropyrrolo[3,4-c]pyrrole-2(1H)-carboxylate] | 90 nM
14 | N#Cc1ccc(COC(=O)N2C[C@@H]3CN(C(=O)c4ccc5[nH]nnc5c4)C[C@H]3C2)c(OCC(F)(F)F)c1 [Example 4.66, (3aS,6aS)-5-(1H-benzotriazole-5-carbonyl)-hexahydro-pyrrolo[3,4-c]pyrrole-2-carboxylic acid 4-cyano-2-(2,2,2-trifluoro-ethoxy)-benzyl ester] | 40 nM
15 | O=C(OCC1C2CC3CC(C2)CC1C3)N1C[C@@H]2CN(C(=O)c3ccc4[nH]nnc4c3)C[C@@H]2C1 (stereo partly drawn) [Example 4.14, (3aS,6aR)-5-(1H-benzotriazole-5-carbonyl)-hexahydro-pyrrolo[3,4-c]pyrrole-2-carboxylic acid adamantan-2-ylmethyl ester] | 4190 nM
16 | O=C(/C=C/c1ccc(OC(F)(F)F)cc1)N1CC[C@@H]2CN(C(=O)NCc3nnc[nH]3)C[C@@H]2CC1 [Example 9.04] | 713 nM

Now from value to compound:

Row | IC50 | SMILES
17 | 50 nM | N#Cc1cccc(/C=C/C(=O)N2CC[C@@H]3CN(C(=O)c4ccc5[nH]nnc5c4)C[C@@H]3CC2)c1 [Example 15.38]
18 | 28 nM | O=C(CCc1ccc(-c2ccncc2)cc1)N1C[C@@H]2CN(C(=O)c3ccc4[nH]nnc4c3)C[C@H]2C1 [Example 17.11, 1-[(3aR,6aR)-5-(1H-benzotriazole-5-carbonyl)-hexahydro-pyrrolo[3,4-c]pyrrol-2-yl]-3-(4-pyridin-4-yl-phenyl)-propan-1-one]
19 | 24 nM | COc1cc(C(=O)N2C[C@@H]3CN(C(=O)c4ccc5[nH]nnc5c4)C[C@H]3C2)cc2ccccc12 [Example 19.07, (1H-benzotriazol-5-yl)-[(3aS,6aS)-5-(4-methoxy-naphthalene-2-carbonyl)-hexahydro-pyrrolo[3,4-c]pyrrol-2-yl]-methanone]
20 | 135 nM | O=C(/C=C/c1ccc(-c2ccncc2)cc1)N1C[C@@H]2CN(C(=O)c3ccc4[nH]nnc4c3)C[C@H]2C1 [Example 15.79, (E)-1-[(3aR,6aR)-5-(1H-benzotriazole-5-carbonyl)-hexahydro-pyrrolo[3,4-c]pyrrol-2-yl]-3-(4-pyridin-4-yl-phenyl)-prop-2-en-1-one]
21 | 280 nM | O=C1N[C@@H]2CCN(C(=O)N3C[C@H]4CN(C(=O)/C=C/c5ccc(OC(F)(F)F)cc5)C[C@@H]4C3)C[C@H]2O1 [Example 15.54]
22 | 1900 nM | O=C(COc1ccccc1)N1C[C@@H]2CN(C(=O)c3ccc4[nH]nnc4c3)C[C@H]2C1 [Example 15.95]
23 | 13 nM | O=C(/C=C/c1ccc(F)cc1C(F)(F)F)N1CC[C@@H]2CN(C(=O)c3ccc4[nH]nnc4c3)C[C@@H]2CC1 [Example 15.66, (E)-1-((3aR,8aS)-2-(1H-benzo[d][1,2,3]triazole-5-carbonyl)octahydro-pyrrolo[3,4-d]azepin-6(7H)-yl)-3-(4-fluoro-2-(trifluoromethyl)phenyl)-prop-2-en-1-one]
24 | 31 nM | N#Cc1ccc(/C=C/C(=O)N2C[C@@H]3CN(C(=O)c4ccc5[nH]nnc5c4)C[C@H]3C2)c(F)c1 [Example 15.35]
25 | 31 nM | CC(C)(C)c1ccccc1OCC(=O)N1C[C@@H]2CN(C(=O)c3ccc4[nH]nnc4c3)C[C@H]2C1 [Example 19.16, 1-[(3aS,6aS)-5-(1H-benzotriazole-5-carbonyl)-hexahydro-pyrrolo[3,4-c]pyrrol-2-yl]-2-(2-tert-butyl-phenoxy)-ethanone]
26 | 9 nM | Cc1ccc(C(C)C)c(OCC(=O)N2CC[C@@H]3CN(C(=O)c4ccc5[nH]nnc5c4)C[C@@H]3CC2)c1 [Example 15.97]
27 | 1040 nM | CN(Cc1cnn[nH]1)C(=O)N1C[C@H]2CN(C(=O)CCc3ccc(OC(F)(F)F)cc3)C[C@H]2C1 [Example 15.60]
28 | 116 nM | O=C(/C=C/c1cccc(OC(F)(F)F)c1)N1C[C@H]2CCN(C(=O)c3ccc4[nH]nnc4c3)C[C@@H]2C1 [Example 15.73]
29 | 1620 nM | O=C(c1ccc2[nH]nnc2c1)N1C[C@@H]2CN(C(=O)c3cc4cc(Cl)ccc4[nH]3)C[C@@H]2C1 [Example 15.01]
30 | 6 nM | O=C(/C=C/c1cc(Cl)cc(Cl)c1)N1C[C@@H]2CN(C(=O)c3ccc4[nH]nnc4c3)C[C@H]2C1 [Example 15.42]
31 | 3 nM | O=C(COc1ccc(OC(F)(F)F)cc1)N1C[C@@H]2CN(C(=O)[C@@H]3CCc4[nH]nnc4C3)C[C@H]2C1 [Example 19.34, 1-[(3aS,6aS)-5-[(5R)-4,5,6,7-tetrahydro-1H-benzotriazole-5-carbonyl]-1,3,3a,4,6,6a-hexahydropyrrolo[3,4-c]pyrrol-2-yl]-2-[4-(trifluoromethoxy)phenoxy]ethanone]
32 | 15 nM | CCOc1cc(C(=O)N2C[C@@H]3CN(C(=O)c4ccc5[nH]nnc5c4)C[C@H]3C2)nc2ccccc12 [Example 19.37, ((3aS,6aS)-5-(1H-benzo[d][1,2,3]triazole-5-carbonyl)hexahydropyrrolo[3,4-c]pyrrol-2(1H)-yl)(4-ethoxyquinolin-2-yl)methanone]
33 | 74 nM | N#Cc1cc(OC(F)(F)F)ccc1OCC(=O)N1C[C@@H]2CN(C(=O)c3ccc4[nH]nnc4c3)C[C@H]2C1 [Example 15.96]
34 | 11 nM | O=C(CCc1ccc(C(F)(F)F)cc1)N1C[C@@H]2CN(C(=O)c3ccc4[nH]nnc4c3)C[C@H]2C1 [Example 15.59]

From patent US10669268B2, “Bicyclic derivatives” (Hoffmann-La Roche Inc., priority 2012, dated 2020)
